Laboratory results taken from patent US20260365670A1, “EGFR INHIBITORS AND USES THEREOF” (DIZAL (JIANGSU) PHARMACEUTICAL CO., LTD., priority 2022, published 2026).
Like-named read-outs stand apart in the source and are kept apart here.

Legend:
Format in all cases: cell-based
[1] = test system: Ba/F3 cells expressing EGFR mutations; assay: Cell proliferation assay, Ba/F3 cells expressing EGFR mutations (CellTiter-Glo, 72 hours); details: CellTiter-Glo
In short: (§1)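 Ba/F3 cells carrying EGFR mutants (5000/well) or PC-9 cells (500/well) in RPMI1640 were dosed with compound series after overnight attachment and grown 72 h. Viability read by CellTiter-Glo, with day-0 counts subtracted; GI50 from curve fits of % proliferation versus DMSO control.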

PC-9 = assay: Cell proliferation assay, PC-9 cells (CellTiter-Glo, 72 hours); details: PC9 cells, CellTiter-Glo, read-out: PC9 GI50
In short: as §1

A-431 = assay: Cell proliferation GI50, A-431 cells (Table 6)
Experimental: [Worded in the source for another cell line; this cell line is reported under the same test.] Ba/F3 cells expressing EGFR mutations were seeded in 384-well plates at 5000 cells/well in RPMI1640 medium containing […]. PC-9 at 500 cells/well was seeded into 384-well plates in RPMI1640 medium with 10% FBS. After overnight incubation, the assay plates were dosed with compounds at a series of concentrations. Alongside dosing the assay plates, the day 0 plate was processed using CellTiter-Glo® Luminescent Cell Viability Assay (Promega) to measure the number of viable cells (G0). The assay plates were further incubated for 72 hours and the number of viable cells (G3) was measured. The percentage of proliferation was calculated as: […]=100×(G3 value of sample well−G0 value)/(G3 value of DMSO control−G0 value). The concentration of compound producing 50% proliferation inhibition (GI50) was further calculated in best-fit curves using XLFit software. N/A=not available.

[2] = BaF3 cells, EGFR DEL19-C797S, read-out: DEL19-C797S/BaF3 GI50
[3] = BaF3 cells, EGFR DEL19-T790-C797S, read-out: DEL19-T790-C797S/BaF3 GI50
[4] = BaF3 cells, EGFR L858R, read-out: L858R/BaF3 GI50
[5] = BaF3 cells, EGFR L858R-C797S, read-out: L858R-C797S/BaF3 GI50
[6] = BaF3 cells, EGFR L858R-T790-C797S, read-out: L858R-T790-C797S/BaF3 GI50
[7] = BaF3 cells, EGFR L858R-T790M, read-out: L858R-T790M/BaF3 GI50
[8] = EGFR DEL19-T790M, read-out: DEL19-T790M GI50

Compound	GI50 [1, 2] [nM]	GI50 [1, 3] [nM]	GI50 [1, 4] [nM]	GI50 [1, 5] [nM]	GI50 [1, 6] [nM]	GI50 [1, 7] [nM]	GI50 [1, 8] [nM]	GI50 (PC-9) [nM]	GI50 (A-431; A-431 cells) [µM]	GI50 (A-431; Homo sapiens, A-431, A-431 cells) [µM]
Cn1ncc2c1OCCN1CC3CCC(C3)(C1)n1c(nc3ccc(N4CCN(C5COC5)CC4)cc31)NC(=O)c1cc-2c(=O)n(C)c1 (single isomer, unassigned) [Example A71A]	286	579	1760	954	762	2410	735	787	7.87	
CN1CCN(C2CCN(c3ccc4nc5n(c4c3)C34CCC(CN(CCOc6c(cnn6C)-c6cc(cn(C)c6=O)C(=O)N5)C3)C4)C2)CC1 (single isomer, unassigned) [Example A80B, 15,21-Dimethyl-5-[3-(4-methylpiperazin-1-yl)pyrrolidin-1-yl]-23-oxa-2,9,11,15,20,21,26-heptaazaheptacyclo[24.4.1.1^{1,28}.1^{13,17}.0^{2,10}.0^{3,8}.0^{18,22}]tritriaconta-3,5,7,9,13,17(33),18(22),19-octaene-12,16-dione]	0.69	1.3	0.69	0.8	2.5	2.7	1.2	3.3	0.483	
Cn1ncc2c1OCCN1CC3CCC(C3)(C1)n1c(nc3ccc(N4CCC(N5CC(F)C5)C4)cc31)NC(=O)c1cc-2c(=O)n(C)c1 (single isomer, unassigned) [Example A94A1, 5-[3-(3-Fluoroazetidin-1-yl)pyrrolidin-1-yl]-15,21-dimethyl-23-oxa-2,9,11,15,20,21,26-heptaazaheptacyclo[24.4.1.1^{1,28}.1^{13,17}.0^{2,10}.0^{3,8}.0^{18,22}]tritriaconta-3,5,7,9,13,17(33),18(22),19-octaene-12,16-dione]	936	2960	754	1800	882	2650	2030	2330	3.54	
Cn1ncc2c1OCCN1CC3CCC(C3)(C1)n1c(nc3ccc(N4CCC(N5CC(F)C5)C4)cc31)NC(=O)c1cc-2c(=O)n(C)c1 (single isomer, unassigned) [Example A94A2, 5-[3-(3-Fluoroazetidin-1-yl)pyrrolidin-1-yl]-15,21-dimethyl-23-oxa-2,9,11,15,20,21,26-heptaazaheptacyclo[24.4.1.1^{1,28}.1^{13,17}.0^{2,10}.0^{3,8}.0^{18,22}]tritriaconta-3,5,7,9,13,17(33),18(22),19-octaene-12,16-dione]	1090	3940	715	1480	634	2710	2100	1940	1.8	
CN(C)C1CN(c2ccc3nc4n(c3c2)C23CCC(CN(CCOc5c(cnn5C)-c5cc(cn(C)c5=O)C(=O)N4)C2)C3)CC1(F)F (single isomer, unassigned) [Example A99A]	966	2900	372	1560	874	2630	1250	3090		4.93
